From patent US10414811B2, “Protease-resistant lipidated GLP-1 analogs” (MEDIMMUNE LIMITED, priority 2015, dated 2019)
Read-outs that look alike come from different tables or passages of the source. Numbered stars: 1 amine (or outer) side, 2 acyl side, 3 side chain; on linkers, the order of the positions; unused ones are H or OH. Square brackets hold non-standard residues; d marks the D form. Side chains are listed from the residue outwards. Peptide text beside a SMILES is read from it. * marks the point of attachment. C18 diacid = O=C(O)CCCCCCCCCCCCCCCCC(=O)*; γGlu = O=C(O)[C@H](CCC(=O)[*:2])N[*:1]; Stearoyl = CCCCCCCCCCCCCCCCCC(=O)*; αMeF = C[C@](N)(Cc1ccccc1)C(=O)O; αMeK = C[C@](N)(CCCCN)C(=O)O; αMeS = C[C@](N)(CO)C(=O)O; AEEA = NCCOCCOCC(=O)O; Aib = CC(C)(N)C(=O)O

Key:
Type in all cases: cell-based
[1] = molecular target: T1, human GLP-1 receptor (GLP-1R) (Homo sapiens, UniProt P43220); test: cAMP assay, human GLP-1R cells
T1 construct: expressed in transfected cells
T1 sequence (P43220 24-463): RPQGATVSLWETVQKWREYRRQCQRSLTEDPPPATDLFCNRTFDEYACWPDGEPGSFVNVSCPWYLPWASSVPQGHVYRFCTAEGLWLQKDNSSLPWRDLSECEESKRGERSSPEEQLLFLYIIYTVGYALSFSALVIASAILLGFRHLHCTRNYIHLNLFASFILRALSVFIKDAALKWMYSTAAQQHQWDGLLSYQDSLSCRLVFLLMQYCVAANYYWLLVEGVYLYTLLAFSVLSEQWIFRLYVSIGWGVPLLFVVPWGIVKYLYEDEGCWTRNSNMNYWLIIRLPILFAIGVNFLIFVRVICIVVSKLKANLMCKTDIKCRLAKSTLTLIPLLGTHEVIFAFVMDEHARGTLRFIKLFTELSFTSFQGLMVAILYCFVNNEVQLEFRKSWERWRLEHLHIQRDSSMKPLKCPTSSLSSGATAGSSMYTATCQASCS
Method in brief: (§1)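 Peptide-stimulated cAMP measured by two-step HTRF after a 30 min room-temperature incubation with receptor-expressing cells (hGLP-1R, hGIPR at 1×10^5 cells/ml; hGCGR at 2×10^5 cells/ml). Duplicate dilutions; EC50 from 4-parameter logistic fit of % Delta F.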

[2] = molecular target: T2, human glucagon receptor (GCGR) (Homo sapiens, UniProt P47871); test: cAMP assay, human GCGR cells; conditions: cAMP assay
T2 construct: expressed in transfected cells
T2 sequence (P47871 26-477): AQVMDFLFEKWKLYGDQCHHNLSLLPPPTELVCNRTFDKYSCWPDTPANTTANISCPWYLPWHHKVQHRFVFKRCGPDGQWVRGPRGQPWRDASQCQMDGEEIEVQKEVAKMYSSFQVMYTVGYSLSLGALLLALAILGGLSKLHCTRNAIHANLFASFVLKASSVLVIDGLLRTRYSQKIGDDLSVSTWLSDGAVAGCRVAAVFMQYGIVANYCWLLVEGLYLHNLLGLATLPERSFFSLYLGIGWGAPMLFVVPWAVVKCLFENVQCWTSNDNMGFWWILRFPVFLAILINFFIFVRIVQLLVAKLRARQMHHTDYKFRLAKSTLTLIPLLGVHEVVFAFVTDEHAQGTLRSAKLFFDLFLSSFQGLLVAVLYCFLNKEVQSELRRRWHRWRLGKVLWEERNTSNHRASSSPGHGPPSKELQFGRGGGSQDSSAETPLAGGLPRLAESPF
Method in brief: as §1

[3] = molecular target: T3, human glucose-dependent insulinotropic peptide receptor (GIPR) (Homo sapiens, UniProt P48546); test: cAMP assay, human GIPR cells; conditions: cAMP assay
T3 construct: expressed in transfected cells
T3 sequence (P48546 22-466): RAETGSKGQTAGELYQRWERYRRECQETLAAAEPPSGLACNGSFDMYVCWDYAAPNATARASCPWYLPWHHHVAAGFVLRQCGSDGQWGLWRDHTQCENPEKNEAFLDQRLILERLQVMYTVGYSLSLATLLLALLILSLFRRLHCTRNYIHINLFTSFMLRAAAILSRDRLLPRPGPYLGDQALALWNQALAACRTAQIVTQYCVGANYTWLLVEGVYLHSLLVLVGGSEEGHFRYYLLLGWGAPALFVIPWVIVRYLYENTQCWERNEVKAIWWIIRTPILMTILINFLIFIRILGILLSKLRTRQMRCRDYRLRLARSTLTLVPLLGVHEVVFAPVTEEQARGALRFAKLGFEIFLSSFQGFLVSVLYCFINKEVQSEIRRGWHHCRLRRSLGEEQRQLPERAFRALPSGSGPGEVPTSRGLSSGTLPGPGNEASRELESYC
Method in brief: as §1

GLP-1R (INS1e assay) = molecular target: T4, GLP-1R (INS1e assay) (Rattus norvegicus, UniProt P32301); test: INS1e assay, cAMP activity at GLP-1R; conditions: mono-lipidated peptides
T4 construct: endogenous in cells; host or cells: INS-1E cells
T4 sequence (P32301 22-463): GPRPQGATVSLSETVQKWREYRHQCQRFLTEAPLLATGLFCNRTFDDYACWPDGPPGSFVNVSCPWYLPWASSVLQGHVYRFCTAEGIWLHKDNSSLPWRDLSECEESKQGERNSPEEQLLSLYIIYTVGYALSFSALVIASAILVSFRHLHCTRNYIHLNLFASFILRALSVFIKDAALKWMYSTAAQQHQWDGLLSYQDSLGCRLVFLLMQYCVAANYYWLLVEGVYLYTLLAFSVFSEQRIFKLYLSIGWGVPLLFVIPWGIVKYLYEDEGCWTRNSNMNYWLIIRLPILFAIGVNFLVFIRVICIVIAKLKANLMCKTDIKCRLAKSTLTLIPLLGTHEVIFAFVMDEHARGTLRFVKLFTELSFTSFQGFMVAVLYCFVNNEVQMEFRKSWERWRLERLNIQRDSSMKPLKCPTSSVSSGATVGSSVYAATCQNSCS
Method in brief: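 cAMP was quantified by two-step HTRF, using anti-cAMP cryptate donor and cAMP-d2 acceptor, each diluted 1/20 in conjugate and lysis buffer. EC50 values of the synthetic peptides were derived from the cAMP readout.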

[4] = cAMP assay, first determination (n1), read-out: Primary assay EC50 GLP-1R n1
[5] = cAMP assay, second determination (n2), read-out: Primary assay EC50 GLP-1R n2
[6] = mean of n1 and n2, read-out: Mean pM GLP-1R
[7] = first determination (n1), read-out: Primary assay EC50 Gluc-R (n1)
[8] = second determination (n2), read-out: Primary assay EC50 Gluc-R (n2)
[9] = first determination (n1), read-out: Primary assay EC50 GIP-R (n1)
[10] = second determination (n2), read-out: Primary assay EC50 GIP-R (n2)
[11] = replicate n1, read-out: INS1e assay EC50 GLP-1R n1
[12] = mean of n1 and n2, read-out: INS1e assay EC50 Mean pM GLP-1R
[13] = replicate n2, read-out: INS1e assay EC50 GLP-1R n2

Row | EC50 [1, 4] | EC50 [1, 5] | EC50 [1, 6] | EC50 [2, 7] | EC50 [2, 8] | EC50 [3, 9] | EC50 [3, 10] | EC50 (GLP-1R (INS1e assay); [11]) | EC50 (GLP-1R (INS1e assay); [12]) | EC50 (GLP-1R (INS1e assay); [13]) | SMILES
1 | 1.5 pM | 2.5 pM | 2 pM | ≥ 26 nM | ≥ 26 nM | ≥ 26 nM | ≥ 26 nM | 21.4 pM | – | – | CCCCCCCCCCCCCCCCCC(=O)NCCOCCOCC(=O)NCCOCCOCC(=O)NCCOCCOCC(=O)NCCCC[C@H](NC(=O)[C@H](C)NC(=O)[C@H](C)NC(=O)[C@H](CCC(=O)O)NC(=O)CNC(=O)[C@H](CCC(=O)O)NC(=O)[C@H](CC(C)C)NC(=O)[C@](C)(Cc1ccccc1)NC(=O)[C@H](CO)NC(=O)[C@H](CO)NC(=O)[C@@H](NC(=O)[C@H](CC(=O)O)NC(=O)[C@H](CO)NC(=O)[C@@H](NC(=O)[C@](C)(Cc1ccccc1)NC(=O)[C@H](CO)NC(=O)CNC(=O)[C@H](CCC(=O)O)NC(=O)C(C)(C)NC(=O)[C@@H](N)Cc1c[nH]cn1)[C@@H](C)O)C(C)C)C(=O)N[C@@H](CCC(=O)O)C(=O)N[C@@](C)(Cc1ccccc1)C(=O)N[C@H](C(=O)N[C@@H](C)C(=O)N[C@@](C)(Cc1ccccc1)C(=O)N[C@H](C(=O)N[C@H](C(=O)N[C@@](C)(CCCCN)C(=O)NCC(=O)NCC(N)=O)C(C)C)C(C)C)[C@@H](C)CC [compound 52]
2 | 1.4 pM | 2.3 pM | 1.8 pM | ≥ 25 nM | ≥ 25 nM | ≥ 25 nM | ≥ 25 nM | 12.5 pM | 11 pM | 10.1 pM | CCCCCCCCCCCCCCCCCC(=O)NCCOCCOCC(=O)NCCOCCOCC(=O)NCCOCCOCC(=O)NCCCC[C@H](NC(=O)[C@H](C)NC(=O)[C@H](C)NC(=O)[C@H](CCC(=O)O)NC(=O)CNC(=O)[C@H](CCC(=O)O)NC(=O)[C@H](CC(C)C)NC(=O)[C@](C)(Cc1ccccc1)NC(=O)[C@H](CO)NC(=O)[C@](C)(CO)NC(=O)[C@@H](NC(=O)[C@H](CC(=O)O)NC(=O)[C@H](CO)NC(=O)[C@@H](NC(=O)[C@](C)(Cc1ccccc1)NC(=O)[C@H](CO)NC(=O)CNC(=O)[C@H](CCC(=O)O)NC(=O)C(C)(C)NC(=O)[C@@H](N)Cc1c[nH]cn1)[C@@H](C)O)C(C)C)C(=O)N[C@@H](CCC(=O)O)C(=O)N[C@@](C)(Cc1ccccc1)C(=O)N[C@H](C(=O)N[C@@H](C)C(=O)N[C@@H](Cc1c[nH]c2ccccc12)C(=O)N[C@H](C(=O)N[C@H](C(=O)N[C@@](C)(CCCCN)C(=O)NCC(=O)NCC(N)=O)C(C)C)C(C)C)[C@@H](C)CC [compound 55] (H-H[Aib]EGS[αMeF]TSDV[αMeS]S[αMeF]LEGEAAK([AEEA-AEEA-AEEA-Stearoyl])E[αMeF]IAWVV[αMeK]GG-NH2)
3 | 19.7 pM | 14 pM | 16.9 pM | ≥ 25.1 nM | ≥ 25.1 nM | ≥ 25.1 nM | ≥ 25.1 nM | 2570 pM | 3160 pM | 3740 pM | CC[C@H](C)[C@H](NC(=O)[C@H](Cc1ccccc1)NC(=O)[C@H](CCC(=O)O)NC(=O)[C@H](CCCCN)NC(=O)[C@H](C)NC(=O)[C@H](C)NC(=O)[C@H](CCC(=O)O)NC(=O)CNC(=O)[C@H](CCC(=O)O)NC(=O)[C@H](CC(C)C)NC(=O)[C@](C)(Cc1ccccc1)NC(=O)[C@H](CO)NC(=O)[C@](C)(CO)NC(=O)[C@@H](NC(=O)[C@H](CC(=O)O)NC(=O)[C@H](CO)NC(=O)[C@@H](NC(=O)[C@](C)(Cc1ccccc1)NC(=O)[C@H](CO)NC(=O)CNC(=O)[C@H](CCC(=O)O)NC(=O)C(C)(C)NC(=O)[C@@H](N)Cc1c[nH]cn1)[C@@H](C)O)C(C)C)C(=O)N[C@@H](CCCCNC(=O)COCCOCCNC(=O)COCCOCCNC(=O)CC[C@H](NC(=O)CCCCCCCCCCCCCCCCC(=O)O)C(=O)O)C(=O)N[C@@H](Cc1c[nH]c2ccccc12)C(=O)N[C@H](C(=O)N[C@H](C(=O)N[C@@H](CCC(=O)O)C(=O)NCC(=O)NCC(N)=O)C(C)C)C(C)C [compound 65] (H-H[Aib]EGS[αMeF]TSDV[αMeS]S[αMeF]LEGEAAKEFIK([AEEA-AEEA-γGlu-C18 diacid])WVVEGG-NH2)
4 | 203 pM | 97.9 pM | 150 pM | ≥ 25.1 nM | ≥ 25.1 nM | ≥ 25.1 nM | ≥ 25.1 nM | 45600 pM | 42200 pM | 38800 pM | CC[C@H](C)[C@H](NC(=O)[C@H](Cc1ccccc1)NC(=O)[C@H](CCC(=O)O)NC(=O)[C@H](CCC(=O)O)NC(=O)[C@H](C)NC(=O)[C@H](C)NC(=O)[C@H](CCC(=O)O)NC(=O)CNC(=O)[C@H](CCC(=O)O)NC(=O)[C@H](CC(C)C)NC(=O)[C@](C)(Cc1ccccc1)NC(=O)[C@H](CO)NC(=O)[C@](C)(CO)NC(=O)[C@@H](NC(=O)[C@H](CC(=O)O)NC(=O)[C@H](CO)NC(=O)[C@@H](NC(=O)[C@](C)(Cc1ccccc1)NC(=O)[C@H](CO)NC(=O)CNC(=O)[C@H](CCC(=O)O)NC(=O)C(C)(C)NC(=O)[C@@H](N)Cc1c[nH]cn1)[C@@H](C)O)C(C)C)C(=O)N[C@@H](CCCCNC(=O)COCCOCCNC(=O)COCCOCCNC(=O)CC[C@H](NC(=O)CCCCCCCCCCCCCCCCC(=O)O)C(=O)O)C(=O)N[C@@H](Cc1c[nH]c2ccccc12)C(=O)N[C@H](C(=O)N[C@H](C(=O)N[C@@H](CCC(=O)O)C(=O)NCC(=O)NCC(N)=O)C(C)C)C(C)C [compound 66] (H-H[Aib]EGS[αMeF]TSDV[αMeS]S[αMeF]LEGEAAEEFIK([AEEA-AEEA-γGlu-C18 diacid])WVVEGG-NH2; N-terminus assumed)
5 | 72.1 pM | 48 pM | 60.1 pM | ≥ 25.4 nM | ≥ 25.4 nM | ≥ 25.4 nM | ≥ 25.4 nM | 6150 pM | 12100 pM | 18100 pM | CC[C@H](C)[C@H](NC(=O)[C@H](Cc1ccccc1)NC(=O)[C@H](CCC(=O)O)NC(=O)C(C)(C)NC(=O)[C@H](C)NC(=O)[C@H](C)NC(=O)[C@H](CCC(=O)O)NC(=O)CNC(=O)[C@H](CCC(=O)O)NC(=O)[C@H](CC(C)C)NC(=O)[C@](C)(Cc1ccccc1)NC(=O)[C@H](CO)NC(=O)[C@](C)(CO)NC(=O)[C@@H](NC(=O)[C@H](CC(=O)O)NC(=O)[C@H](CO)NC(=O)[C@@H](NC(=O)[C@](C)(Cc1ccccc1)NC(=O)[C@H](CO)NC(=O)CNC(=O)[C@H](CCC(=O)O)NC(=O)C(C)(C)NC(=O)[C@@H](N)Cc1c[nH]cn1)[C@@H](C)O)C(C)C)C(=O)N[C@@H](CCCCNC(=O)COCCOCCNC(=O)COCCOCCNC(=O)CC[C@H](NC(=O)CCCCCCCCCCCCCCCCC(=O)O)C(=O)O)C(=O)N[C@@H](Cc1c[nH]c2ccccc12)C(=O)N[C@H](C(=O)N[C@H](C(=O)N[C@@H](CCC(=O)O)C(=O)NCC(=O)NCC(N)=O)C(C)C)C(C)C [compound 67] (H-H[Aib]EGS[αMeF]TSDV[αMeS]S[αMeF]LEGEAA[Aib]EFIK([AEEA-AEEA-γGlu-C18 diacid])WVVEGG-NH2; N-terminus assumed)
